Assay results reported in patent US8048869B2, “Pharmaceutical composition for use in hormone replacement therapy” (Pantarhei Bioscience B.V., priority 2001, dated 2011).

Assays:
immature rat uterus = conditions: subcutaneously administered; cited from earlier work
ovariectomized rats [1] = assay: Vaginal cornification bioassay in ovariectomized rats, 7 days, sc or po; format: in vivo, rat
From the text: Uterine weight increase in the rat is more commonly used as a measure of estrogenicity. […] In the early 1920s it was discovered that follicular fluid from the pig ovary contained a factor(s) that caused cornification/keratinization of the vaginal epithelium in the rat (Allen and Doisy, 1923, JAMA, 81, 819-821; Allen and Doisy, 1924, Am. J. Physiol., 69, 577-588). The so-called vaginal cornification response in rats subsequently provided a bioassay for testing estrogenicity. Vaginal epithelial cornification/keratinization in ovariectomized rats can be produced only by compounds considered to be true estrogens (Jones et al, 1973, Fert. Steril. 24, 284-291). […] Adult intact female CD rats were ovariectomized to induce estrogen deficiency. […] Castrate vaginal smears are indicative that complete ovariectomy was achieved. Treatment commenced following completion of the 7 days of smearing (day 0=first day of dosing). Animals were dosed, once daily for 7 consecutive days. Daily vaginal lavages continued to be obtained for 7 days after dosing was initiated in order to detect vaginal cornification, as an indication of an estrogenic response. A drop of vaginal washings was placed on a glass slide and examined by light microscopy to detect the presence or absence of cornified epithelial cells. Vaginal lavages were obtained prior to dosing on days 0-6 and prior to necropsy on day 7. […]

ovariectomized rats [2] = assay: Modified 7-day vaginal cornification bioassay with uterine wet weight; format: in vivo, rat; conditions: OVX rats, po, 7 days
From the text: Uterine weight increase in the rat was chosen as another relevant tissue-specific endpoint to determine the hormonal potency of estetrol (E4), particularly in relationship to its hormonal potency to induce vaginal cornification and to correct for vaginal atrophy. Orally (po) administered E4 was therefore tested in a modified 7-day vaginal cornification bioassay (see also example 1), including uterine wet weight measurements at necropsy, to account for vaginal and uterotrophic effects.
The uterotrophic response has been used for many years to assess estrogenic activity. The typical bioassay uses female rats with low levels of endogenous estrogens (e.g., ovariectomized adults or immature animals). In most assay designs the animals are dosed once or twice daily for 3 or 4 days, and twenty-four hours after the final dose the animals are killed, and the uteri excised and weighed. In the current bioassay, vaginal epithelial cornification, and uterine weight gain was evaluated in ovariectomized adult rats over a 7-day period. In this way, two distinct estrogen sensitive parameters could be evaluated concurrently.
Adult intact female CD rats were ovariectomized to induce estrogen deficiency. […] Castrate vaginal smears are indicative that complete ovariectomy was achieved. […] Animals were orally dosed, once daily for 7 consecutive days with vehicle control (10% ethanol/sesame oil) or either 0.1, 0.3, 1.0, or 3.0 mg/kg/day E4. Daily vaginal lavages continued to be obtained for 7 days after dosing was initiated in order to detect vaginal cornification, as an indication of an estrogenic response. A drop of vaginal washings was placed on a glass slide and examined by light microscopy to detect the presence or absence of cornified epithelial cells. The cells present in the vaginal washings were recorded. Vaginal lavages were obtained prior to dosing on days 0-6 and prior to necropsy on day 7.
On Study Day 7, following vaginal lavage 24 hours after the final dose, all rats were euthanized by CO2 asphyxiation. An abdominal incision was made and the uterus excised, blotted and weighed. The occurrence of vaginal cornification, indicative of an estrogenic response, is an “all or none” response. Therefore, data were expressed as the number of rats showing a vaginal estrogenic response (for one or more days) over the number of rats treated (ratio). A Z-test of proportions was used to compare the four test groups to the vehicle control group. Group means±SEM were also calculated for the uterine weights. […] Therefore, a Kruskal-Wallis non-parametric ANOVA on ranks was performed and significant differences across the four treatment groups and the vehicle control were determined using Dunn's method.

[3] = test system: estrogen receptors in the human endometrium; conditions: cited from earlier work

C[C@]12CC[C@@H]3c4ccc(O)cc4CC[C@H]3[C@@H]1[C@@H](O)[C@@H](O)[C@@H]2O [E4, 1,3,5 (10)-estratrien-3,15α,16α,17β-tetrol]
uterotrophic activity (immature rat uterus): very weak uterotrophic activity
Number of Rats Exhibiting Estrogenic Response/Number of Rats Treated (ovariectomized rats [1]; 1.0 mg/kg/day, Day 7, 1 mg/kg/day): all rats
Number of Rats Exhibiting Estrogenic Response/Number of Rats Treated (ovariectomized rats [1]; 3.0 mg/kg/day, Day 7, 3 mg/kg/day): all rats
Uterine weight Mean (ovariectomized rats [2]; 0.1 mg/kg/day): 149.2 mg
Uterine weight Significantly different from vehicle (P < 0.05) (ovariectomized rats [2]; 0.1 mg/kg/day): no
Vaginal Cornification Non-responders (ovariectomized rats [2]; 0.1 mg/kg/day): 0
Vaginal Cornification Significantly different from vehicle (P < 0.05) (ovariectomized rats [2]; 0.1 mg/kg/day): yes
Vaginal Cornification responders (ovariectomized rats [2]; 0.1 mg/kg/day): 8
Uterine weight Mean (ovariectomized rats [2]; 0.3 mg/kg/day): 181.2 mg
Uterine weight Significantly different from vehicle (P < 0.05) (ovariectomized rats [2]; 0.3 mg/kg/day): no
Vaginal Cornification Non-responders (ovariectomized rats [2]; 0.3 mg/kg/day): 0
Vaginal Cornification Significantly different from vehicle (P < 0.05) (ovariectomized rats [2]; 0.3 mg/kg/day): yes
Vaginal Cornification responders (ovariectomized rats [2]; 0.3 mg/kg/day): 8
Uterine weight Mean (ovariectomized rats [2]; 1.0 mg/kg/day): 253.7 mg
Uterine weight Significantly different from vehicle (P < 0.05) (ovariectomized rats [2]; 1.0 mg/kg/day): yes
Vaginal Cornification Non-responders (ovariectomized rats [2]; 1.0 mg/kg/day): 0
Vaginal Cornification Significantly different from vehicle (P < 0.05) (ovariectomized rats [2]; 1.0 mg/kg/day): yes
Vaginal Cornification responders (ovariectomized rats [2]; 1.0 mg/kg/day): 8
Uterine weight Mean (ovariectomized rats [2]; 3.0 mg/kg/day): 308.4 mg
Uterine weight Significantly different from vehicle (P < 0.05) (ovariectomized rats [2]; 3.0 mg/kg/day): yes
Vaginal Cornification Non-responders (ovariectomized rats [2]; 3.0 mg/kg/day): 0
Vaginal Cornification Significantly different from vehicle (P < 0.05) (ovariectomized rats [2]; 3.0 mg/kg/day): yes
Vaginal Cornification responders (ovariectomized rats [2]; 3.0 mg/kg/day): 8
relative binding constant to the estrogen receptor compared to 17β-estradiol (100%) ([3]; Tseng et al. 1976): 6.25%
Relative binding to estrogen receptors, relative to 17β-estradiol ([3]; Tseng et al. 1978): 1.5%
